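Assay format: 96-well plates, 48-hour exposure. Here, GI50 denotes the concentration required for 50% inhibition of growth. Definition used: TGI = concentration required for complete inhibition of growth.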
What was measured:
Assay in all cases: growth of human tumour cells (NCI), 48 h
UO-31 renal = tested on: UO-31 renal
T-47D breast = tested on: T-47D breast
SK-MEL-28 melanoma = tested on: SK-MEL-28 melanoma
SNB-75 CNS = tested on: SNB-75 CNS
SK-MEL-2 melanoma = tested on: SK-MEL-2 melanoma
HCT-116 colon = tested on: HCT-116 colon
HOP-62 NSCLC = tested on: HOP-62 NSCLC
MALME-3M melanoma = tested on: MALME-3M melanoma
SK-OV-3 ovarian = tested on: SK-OV-3 ovarian
SR leukemia = tested on: SR leukemia
EKVX NSCLC = tested on: EKVX NSCLC
PC-3 prostate = tested on: PC-3 prostate
NCI-H460 lung = tested on: NCI-H460 lung
HCC-2998 colon = tested on: HCC-2998 colon
SF-295 CNS = tested on: SF-295 CNS
COLO 205 colon = tested on: COLO 205 colon
RPMI-8226 leukemia = tested on: RPMI-8226 leukemia
MDA-MB-435 = tested on: MDA-MB-435
HT29 colon = tested on: HT29 colon
K-562 leukemia = tested on: K-562 leukemia
OVCAR-8 ovarian = tested on: OVCAR-8 ovarian
U251 CNS = tested on: U251 CNS
NCI-H23 lung = tested on: NCI-H23 lung
A549 NSCLC = tested on: A549 NSCLC
RXF 393 renal = tested on: RXF 393 renal
TK-10 renal = tested on: TK-10 renal
SW-620 colon = tested on: SW-620 colon
BT-549 breast = tested on: BT-549 breast
SN12C renal = tested on: SN12C renal
OVCAR-3 ovarian = tested on: OVCAR-3 ovarian
SK-MEL-5 melanoma = tested on: SK-MEL-5 melanoma
NCI-H226 lung = tested on: NCI-H226 lung
DU-145 prostate = tested on: DU-145 prostate
IGROV1 ovarian = tested on: IGROV1 ovarian
OVCAR-5 ovarian = tested on: OVCAR-5 ovarian
HS 578T breast = tested on: HS 578T breast
SF-539 CNS = tested on: SF-539 CNS
CAKI-1 renal = tested on: CAKI-1 renal
KM12 colon = tested on: KM12 colon
OVCAR-4 ovarian = tested on: OVCAR-4 ovarian
NCI-H522 lung = tested on: NCI-H522 lung
NCI/ADR-RES ovarian = tested on: NCI/ADR-RES ovarian
MCF7 breast = tested on: MCF7 breast
MOLT-4 leukemia = tested on: MOLT-4 leukemia
SF-268 CNS = tested on: SF-268 CNS
HL-60(TB) leukemia = tested on: HL-60(TB) leukemia
ACHN renal = tested on: ACHN renal
MDA-MB-231 breast = tested on: MDA-MB-231 breast
LOX IMVI melanoma = tested on: LOX IMVI melanoma
A498 renal = tested on: A498 renal
786-0 renal = tested on: 786-0 renal
M14 melanoma = tested on: M14 melanoma
HOP-92 NSCLC = tested on: HOP-92 NSCLC
SNB-19 CNS = tested on: SNB-19 CNS
CCRF-CEM leukemia = tested on: CCRF-CEM leukemia
UACC-62 melanoma = tested on: UACC-62 melanoma
HCT-15 colon = tested on: HCT-15 colon
UACC-257 melanoma = tested on: UACC-257 melanoma

O=C1CCc2c(Oc3ccc4c(c3)[C@H]3[C@@H](O4)[C@@H]3c3nc4ccc(C(F)(F)F)cc4[nH]3)ccnc2N1
GI50 (UO-31 renal): 0.693 µM | TGI (UO-31 renal): > 25.3 µM | GI50 (T-47D breast): 1.37 µM | TGI (T-47D breast): > 27.1 µM | GI50 (SK-MEL-28 melanoma): 0.0326 µM | TGI (SK-MEL-28 melanoma): 3.8 µM | GI50 (SNB-75 CNS): 4.39 µM | TGI (SNB-75 CNS): > 100 µM | GI50 (SK-MEL-2 melanoma): 0.242 µM | TGI (SK-MEL-2 melanoma): 1.67 µM | GI50 (HCT-116 colon): 0.406 µM | TGI (HCT-116 colon): > 100 µM | GI50 (HOP-62 NSCLC): 2.45 µM | TGI (HOP-62 NSCLC): > 100 µM | GI50 (MALME-3M melanoma): < 0.0137 µM | TGI (MALME-3M melanoma): 0.0613 µM | GI50 (SK-OV-3 ovarian): 3.54 µM | TGI (SK-OV-3 ovarian): > 100 µM | GI50 (SR leukemia): 2.56 µM | TGI (SR leukemia): > 25.2 µM | GI50 (EKVX NSCLC): 2.99 µM | TGI (EKVX NSCLC): > 100 µM | GI50 (PC-3 prostate): 3.97 µM | TGI (PC-3 prostate): > 100 µM | GI50 (NCI-H460 lung): 2.41 µM | TGI (NCI-H460 lung): > 100 µM | GI50 (HCC-2998 colon): 3.08 µM | TGI (HCC-2998 colon): > 100 µM | GI50 (SF-295 CNS): 3.63 µM | TGI (SF-295 CNS): > 100 µM | GI50 (COLO 205 colon): 0.0359 µM | TGI (COLO 205 colon): 8.39 µM | GI50 (RPMI-8226 leukemia): 2.56 µM | TGI (RPMI-8226 leukemia): > 100 µM | GI50 (MDA-MB-435): 0.0682 µM | TGI (MDA-MB-435): > 100 µM | GI50 (HT29 colon): 0.0302 µM | TGI (HT29 colon): > 37.6 µM | GI50 (K-562 leukemia): 0.0381 µM | GI50 (OVCAR-8 ovarian): 3.12 µM | TGI (OVCAR-8 ovarian): > 100 µM | GI50 (U251 CNS): 3.92 µM | TGI (U251 CNS): > 100 µM | GI50 (NCI-H23 lung): 1.42 µM | TGI (NCI-H23 lung): > 100 µM | GI50 (A549 NSCLC): 2.52 µM | TGI (A549 NSCLC): > 100 µM | GI50 (RXF 393 renal): 4.03 µM | TGI (RXF 393 renal): > 100 µM | GI50 (TK-10 renal): 1.61 µM | TGI (TK-10 renal): > 30.3 µM | GI50 (SW-620 colon): 2.43 µM | TGI (SW-620 colon): > 100 µM | GI50 (BT-549 breast): 3.22 µM | TGI (BT-549 breast): > 100 µM | GI50 (SN12C renal): 2.21 µM | TGI (SN12C renal): > 100 µM | GI50 (OVCAR-3 ovarian): 4.18 µM | TGI (OVCAR-3 ovarian): > 100 µM | GI50 (SK-MEL-5 melanoma): 0.435 µM | TGI (SK-MEL-5 melanoma): 2.91 µM | GI50 (NCI-H226 lung): 1.1 µM | TGI (NCI-H226 lung): > 100 µM | GI50 (DU-145 prostate): 4.12 µM | TGI (DU-145 prostate): > 100 µM | GI50 (IGROV1 ovarian): 1.19 µM | TGI (IGROV1 ovarian): > 100 µM | GI50 (OVCAR-5 ovarian): 1.07 µM | TGI (OVCAR-5 ovarian): > 100 µM | GI50 (HS 578T breast): 5.41 µM | TGI (HS 578T breast): > 100 µM | GI50 (SF-539 CNS): 4.66 µM | TGI (SF-539 CNS): > 100 µM | GI50 (CAKI-1 renal): 1.47 µM | TGI (CAKI-1 renal): > 100 µM | GI50 (KM12 colon): 0.69 µM | TGI (KM12 colon): > 100 µM | GI50 (OVCAR-4 ovarian): 2.02 µM | TGI (OVCAR-4 ovarian): > 100 µM | GI50 (NCI-H522 lung): 0.903 µM | TGI (NCI-H522 lung): > 28.1 µM | GI50 (NCI/ADR-RES ovarian): 2.83 µM | TGI (NCI/ADR-RES ovarian): > 100 µM | GI50 (MCF7 breast): 2.25 µM | TGI (MCF7 breast): > 100 µM | GI50 (MOLT-4 leukemia): 1.66 µM | TGI (MOLT-4 leukemia): > 100 µM | GI50 (SF-268 CNS): 2.73 µM | TGI (SF-268 CNS): > 100 µM | GI50 (HL-60(TB) leukemia): 0.237 µM | TGI (HL-60(TB) leukemia): 3.14 µM | GI50 (ACHN renal): 0.711 µM | TGI (ACHN renal): > 100 µM | GI50 (MDA-MB-231 breast): 0.61 µM | TGI (MDA-MB-231 breast): 8.28 µM | GI50 (LOX IMVI melanoma): 0.102 µM | TGI (LOX IMVI melanoma): 4.65 µM | GI50 (A498 renal): 1.12 µM | TGI (A498 renal): 4.24 µM | GI50 (786-0 renal): 6.28 µM | TGI (786-0 renal): > 100 µM | GI50 (M14 melanoma): 0.026 µM | TGI (M14 melanoma): 2.71 µM | GI50 (HOP-92 NSCLC): 1.18 µM | TGI (HOP-92 NSCLC): 5.68 µM | GI50 (SNB-19 CNS): 4.52 µM | TGI (SNB-19 CNS): > 100 µM | GI50 (CCRF-CEM leukemia): 3.54 µM | TGI (CCRF-CEM leukemia): > 100 µM | GI50 (UACC-62 melanoma): 0.0215 µM | TGI (UACC-62 melanoma): 1.41 µM | GI50 (HCT-15 colon): 2.4 µM | TGI (HCT-15 colon): > 100 µM | GI50 (UACC-257 melanoma): 0.0323 µM

— PubChem BioAssay (NCI)
